Measured values as given in article PMC4319847 (PLoS ONE, 2015).
No end group written: not given here.

Molecular target: T1, ΔIBB-h-importin-α1 (Homo sapiens, UniProt P52292, DEL11-54)
T1 construct: IBB domain-truncated h-importin-α1 (Δ-h-importin-α1) (1–10, 55–529); GST (N, cleaved yes); His6 (C); made in house; host or cells: E. coli BL21 (DE3) Codonplus-RIL
Test: ITC binding of NLS peptides to ΔIBB-h-importin-α1

Sequence: KRPAATKKAGQAKKKK [nucleoplasmin NLS]
- Kd: 140 ± 50 nM
